Values belong to the molecule of their own block, whether it stands above or below them.
Key:
[1] = test system: collagen binding domain of MMP-2 (CBD); test: Surface plasmon resonance, CBD over immobilized peptide; parameters: species or system human; settings: CBD 10 μM over immobilized peptide, SPR
[2] = molecular target: T1, PEX (hemopexin domain of MMP-2) (Homo sapiens, UniProt P08253); test: Surface plasmon resonance, PEX over immobilized peptide; format: binding; settings: PEX 0.3–10 μM over immobilized peptide, SPR
T1 sequence (P08253 446-660): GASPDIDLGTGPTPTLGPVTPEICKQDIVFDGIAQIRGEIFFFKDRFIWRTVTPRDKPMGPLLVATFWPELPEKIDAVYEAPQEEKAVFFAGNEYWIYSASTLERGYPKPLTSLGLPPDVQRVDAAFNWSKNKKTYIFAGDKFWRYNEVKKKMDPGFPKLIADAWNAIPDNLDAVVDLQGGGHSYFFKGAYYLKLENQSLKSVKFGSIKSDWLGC

[3] = test system: proMMP-2 activation by HT1080 cell membranes; test: Activation of purified proMMP-2 by isolated HT1080 cell membranes; format: biochemical, human; settings: peptide 3.7–100 μM, 16 h at 22 °C, pH 7.4; repeated at least 3 times
[4] = test system: proMMP-2 activation in HT1080 fibrosarcoma cells; test: Cell surface activation of proMMP-2 in Con A stimulated HT1080 cell culture; format: cell-based, human; settings: Con A 20 μg/ml, 0 nM C-TIMP-2
[5] = molecular target: recombinant human MMP-2^E404A (human) (UniProt P08253); test: ELISA
[6] = molecular target: recombinant full-length TIMP-2 (human (plasmid pGWIGH/htimp-2)) (UniProt P16035); test: ELISA
Chain of recombinant full-length TIMP-2 (human (plasmid pGWIGH/htimp-2)) (P16035 27-220): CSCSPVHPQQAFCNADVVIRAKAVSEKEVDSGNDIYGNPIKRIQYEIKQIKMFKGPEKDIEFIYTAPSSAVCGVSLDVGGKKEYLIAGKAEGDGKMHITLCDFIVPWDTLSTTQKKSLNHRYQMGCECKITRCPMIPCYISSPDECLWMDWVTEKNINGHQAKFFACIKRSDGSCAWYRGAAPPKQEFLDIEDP

proMMP-2 activation = settings: ref Strongin et al., 1995; cited from earlier work
[7] = molecular target: recombinant full-length TIMP-2 (human (plasmid pGWIGH/htimp-2), UniProt P16035 27-220); test: ELISA
Chain of recombinant full-length TIMP-2 (P16035 27-220): as above

Molecule: CAWYRGAAPPK [P175S]
binding of CBD to peptide [1]: did not bind | binding of PEX to peptide [2]: consistently very weak | inhibition of proMMP-2 activation by peptide [3]: did not have any inhibitory effect on the cell membrane- mediated activation of proMMP-2

Molecule: concanavalin A [Con A]
activated MMP-2 band intensity [4]: 34,199 RDU | non-activated MMP-2 band intensity [4]: 3,439 RDU | proMMP-2 activated by Con A [4]: > 90%

Molecule: tissue inhibitor of matrix metalloproteinase 2 [TIMP-2]
concentration at which full-length TIMP-2 inhibited activation of proMMP-2 (proMMP-2 activation): greater than 285 nM

The next lines start with the values.

IC50 [5]: 5000 nM | Kd [5]: 390 nM
Molecule: recombinant carboxyl-terminal domain of TIMP-2 (C-TIMP-2) (from UniProt P16035 154-220) (domain or fragment)

EC50 [6]: 50 nM
Molecule: recombinant human MMP-2^E404A (from UniProt P08253 30-660) (enzyme)

EC50 [7]: 150 nM
B1: hemopexin-like domain of MMP-2 (PEX) (domain or fragment, human, UniProt P08253 446-660, looked up)
chain: T1 sequence (P08253 446-660)
modifications: biotinylated (sites not given) in the assays on coated TIMP-2; unlabeled when coated and in SPR
